Measured values reported in article PMC7719179, “Small molecule inhibition of Dynamin-dependent endocytosis targets multiple niche signals and impairs leukemia stem cells” (Nature Communications, 2020).
Several values for one entry are separate records, joined by “and”; a condition that tells them apart may be missing. Equal entries are not always repeated.

Experiments:
[1] = tested on: pSTAT5 and pERK in patient-derived AML cells; experiment: Cytokine-induced pSTAT5 and pERK in patient-derived AML cells; type: cell-based, human; conditions: for pERK relative expression, FOLD / pSTAT5 relative expression, FOLD: fold over unstimulated; for pSTAT5 FOLD: relative expression vs Unstimulated
Experimental: All bone marrow or peripheral blood samples from patients with AML were collected after informed consent, in accordance with guidelines approved by the Human Research Ethics Committee of Alfred Health. Human AML cells were thawed, washed, and adjusted to 2 × 10^6 cells/mL in Iscove’s Modified Dulbecco’s Media (#12440053, Gibco, Grand Island NY, USA) supplemented with Glutamax 2 mM (Gibco) and 1% v/v Penicillin/Streptomycin (Gibco). […] For cytokine-mediated signalling assays, cells were incubated with vehicle or Dynole 34-2 for 1 h, and subsequently stimulated with either 25 ng/mL rhIL-3 (#200-03, Pepro Tech), 25 ng/mL rhGM-CSF (#300-03, Pepro Tech) or 125 ng/mL rhSCF (#300-07, Pepro Tech) at 37 °C for 20 min. Cells were washed twice using cold PBS 1× and flow cytometry analyses were done on single-cell suspensions using BD Pharmingen antibodies against human CD45 (#557748), IL-3R (CD123, #560087), GM-CSFR alpha chain (CD116, #554532) and BioLegend antibody against human KIT (A3C6E2). For assessing intracellular levels of pSTAT5 and phospho-ERK, flow cytometry analyses were performed in duplicate on patient-derived AML cells as described in the FACS analysis section. The MFI observed without stimulation was reported as 1.

GFP^hi DN3a thymocytes = experiment: Cell cycle-restricted GFP^hi DN3a thymocytes in treated H2B-GFP;Lmo2^Tg mice; type: in vivo, mouse

## CCCCCCCCNC(=O)C(C#N)=Cc1cn(CCCN(C)C)c2ccccc12 [Dynole 34-2, 2-Cyano-N-octyl-3-(1-(3-dimethylaminopropyl)-1H-indol-3-yl)-acrylamide]
[1]; AML01-021
  pERK relative expression, MFI: 1807 MFI
  pSTAT5 relative expression, MFI: 4941 MFI
  pStat5 (MFI): 2538 MFI
  pERK relative expression, FOLD: 1.07 FOLD
  pSTAT5 relative expression, FOLD: 1.87 FOLD
  pSTAT5 FOLD: 1.02
[1]; AML01-050
  pERK relative expression, MFI: 10447 MFI
  pSTAT5 relative expression, MFI: 19500 MFI
  pStat5 (MFI): 29884 MFI
  pERK relative expression, FOLD: 1.28 FOLD
  pSTAT5 relative expression, FOLD: 0.97 FOLD
  pSTAT5 FOLD: 0.84
[1]; AML01-072
  pERK relative expression, MFI: 2195 MFI
  pSTAT5 relative expression, MFI: 18325 MFI
  pStat5 (MFI): 10160 MFI
  pERK relative expression, FOLD: 1.01 FOLD
  pSTAT5 relative expression, FOLD: 0.91 FOLD
  pSTAT5 FOLD: 0.88
[1]; AML01-226
  pERK relative expression, MFI: 1574 MFI
  pSTAT5 relative expression, MFI: 673 MFI
  pStat5 (MFI): 511 MFI
  pERK relative expression, FOLD: 1.05 FOLD
  pSTAT5 relative expression, FOLD: 0.89 FOLD
  pSTAT5 FOLD: 1.01
[1]; AML01-307
  pERK relative expression, MFI: 2891 MFI
  pSTAT5 relative expression, MFI: 12933 MFI
  pStat5 (MFI): 10786 MFI
  pERK relative expression, FOLD: 1.06 FOLD
  pSTAT5 relative expression, FOLD: 1.07 FOLD
  pSTAT5 FOLD: 1.08
[1]; AML02-078
  pERK relative expression, MFI: 5047 MFI
  pSTAT5 relative expression, MFI: 31582 MFI
  pStat5 (MFI): 31914 MFI
  pERK relative expression, FOLD: 0.79 FOLD
  pSTAT5 relative expression, FOLD: 1.24 FOLD
  pSTAT5 FOLD: 1.05
[1]; AML02-123
  pERK relative expression, MFI: 4380 MFI
  pSTAT5 relative expression, MFI: 22757 MFI
  pStat5 (MFI): 30741 MFI
  pERK relative expression, FOLD: 1.16 FOLD
  pSTAT5 relative expression, FOLD: 1.15 FOLD
  pSTAT5 FOLD: 1.00
[1]; AML02-232
  pERK relative expression, MFI: 1644 MFI
  pSTAT5 relative expression, MFI: 1406 MFI
  pStat5 (MFI): 688 MFI
  pERK relative expression, FOLD: 1.04 FOLD
  pSTAT5 relative expression, FOLD: 1.59 FOLD
  pSTAT5 FOLD: 0.73
[1]; AML03-330
  pERK relative expression, MFI: 10652 MFI
  pSTAT5 relative expression, MFI: 5650 MFI
  pStat5 (MFI): 6696 MFI
  pERK relative expression, FOLD: 0.97 FOLD
  pSTAT5 relative expression, FOLD: 1.04 FOLD
  pSTAT5 FOLD: 1.02
[1]; AML03-331
  pERK relative expression, MFI: 1814 MFI
  pSTAT5 relative expression, MFI: 1899 MFI
  pStat5 (MFI): 2344 MFI
  pERK relative expression, FOLD: 0.94 FOLD
  pSTAT5 relative expression, FOLD: 1.03 FOLD
  pSTAT5 FOLD: 1.02
[1]; AML4
  pERK relative expression, MFI: 1091 MFI
  pSTAT5 relative expression, MFI: 3442 MFI
  pStat5 (MFI): 3071 MFI
  pERK relative expression, FOLD: 1.13 FOLD
  pSTAT5 relative expression, FOLD: 0.95 FOLD
  pSTAT5 FOLD: 0.85
[1]; AML16
  pERK relative expression, MFI: 2510 MFI
  pSTAT5 relative expression, MFI: 17405 MFI
  pStat5 (MFI): 13885 MFI
  pERK relative expression, FOLD: 0.44 FOLD
  pSTAT5 relative expression, FOLD: 0.88 FOLD
  pSTAT5 FOLD: 0.70
[1]; AML17
  pERK relative expression, MFI: 822 MFI
  pSTAT5 relative expression, MFI: 3831 MFI
  pStat5 (MFI): 3091 MFI
  pERK relative expression, FOLD: 0.99 FOLD
  pSTAT5 relative expression, FOLD: 1.02 FOLD
  pSTAT5 FOLD: 1.01
[1]; AML18
  pERK relative expression, MFI: 985 MFI
  pSTAT5 relative expression, MFI: 4716 MFI
  pStat5 (MFI): 4188 MFI
  pERK relative expression, FOLD: 0.99 FOLD
  pSTAT5 relative expression, FOLD: 0.86 FOLD
  pSTAT5 FOLD: 1.02
[1]; AML34
  pERK relative expression, MFI: 2315 MFI
  pStat5 (MFI): 10444 MFI
  pERK relative expression, FOLD: 0.84 FOLD
  pSTAT5 FOLD: 1.43
[1]; AML54
  pERK relative expression, MFI: 2163 MFI
  pStat5 (MFI): 4818 MFI
  pERK relative expression, FOLD: 0.94 FOLD
  pSTAT5 FOLD: 0.89
[1]; result in words
  downstream signalling (pSTAT5) in human AML cells: blocked downstream signalling
GFP^hi DN3a thymocytes; H2B-GFP;Lmo2^Tg mice, result in words
  proportion of GFP^hi cells in DN3a thymocytes: did not affect
GFP^hi DN3a thymocytes; mouse, in vivo
  % GFPhi cells in DN3a population: 1.5% and 3.3% and 0.2% and 1.3%
GFP^hi DN3a thymocytes; result in words
  repopulation activity and leukemogenicity of GFP^hi DN3a thymocytes: significantly impaired
